Where two headings read alike, the source gives them in different places. Values belong to the compound of their own block, whether it stands above or below them.
How the values were obtained:
[1] = Dissolved state of recoflavone in sodium hydroxide aqueous solution; format: physicochemical
Method: When recoflavone is not dissolved in purified water, in (S1) step, sodium hydroxide as an alkalizing agent is added in an amount of not less than 1.05 which is the ratio of molar concentration to that of recoflavone. Here, the ratio of molar concentration is expressed as a value by dividing the molar concentration of sodium hydroxide by the molar concentration of recoflavone contained in the ophthalmic composition.
Specifically, (S1) step is a process where sodium hydroxide is added to purified water to prepare an aqueous solution having a molar concentration of not more than 0.16 M or not less than 0.19 M, and then recoflavone is added. Recoflavone can be dissolved transparently through the above process.
The molar concentration of sodium hydroxide is calculated in the above dissolving process not in the final volume of the manufacturing process. […] Therefore an ophthalmic composition cannot be prepared efficiently. The corresponding contents will be described in details with reference to Tables 1, 2 and FIG. 9 below.

[2] = test system: human keratoconjunctival epithelial cells; details: cited from earlier work
[3] = Solubility of recoflavone in water and its pH dependence; format: physicochemical
From the text: (§1) It has a property with low solubility at low pH. As the pH increases, it is ionized and its solubility increases.
In general, an ophthalmic composition is preferably prepared in a transparent solution state in consideration of the feeling of use in eyes and the efficient absorption of the drug. […] Therefore, if recoflavone is not dissolved in purified water for an ophthalmic composition, a transparent solution may be prepared through (S1) step.

[4] = cited from earlier work
[5] = Cell permeability of dissolved recoflavone; format: in vitro ADME; details: high degree of ionization
From the text: as §1

[6] = Drug distribution in each tissue of eye after 3% eye drop administered to rabbit eyes; format: in vivo; details: data not shown
From the text: as §1

[7] = human keratoconjunctival epithelial cells

- Dissolved state ([1]; molar concentration ratio 0.93, NaOH 0.196 M, recoflavone monohydrate 0.211 M): Not transparent
- Dissolved state ([1]; molar concentration ratio 0.97, NaOH 0.196 M, recoflavone monohydrate 0.201 M): Not transparent
- Dissolved state ([1]; molar concentration ratio 1.00, NaOH 0.196 M, recoflavone monohydrate 0.196 M): Not transparent
- Dissolved state ([1]; molar concentration ratio 1.05, NaOH 0.194 M, recoflavone monohydrate 0.184 M): Transparent
- Dissolved state ([1]; molar concentration ratio 1.06, NaOH 0.203 M, recoflavone monohydrate 0.192 M): Transparent
Structure (SMILES): COc1ccc(-c2cc(=O)c3c(OC)cc(OCC(=O)O)cc3o2)cc1OC [recoflavone monohydrate]

- Dissolved state of recoflavone ([1]; NaOH aqueous solution out of the range of not more than 0.16 M or not less than 0.19 M, stirring for several hours): not dissolved transparently
- Dissolved state of recoflavone ([1]; final volume 40 L, recoflavone 5% (w/v), NaOH 0.196 M, purified water 28,000 mL, ratio 1.05~1.06): Transparent
- Dissolved state of recoflavone ([1]; final volume 70 L, recoflavone 5% (w/v), NaOH 0.196 M, purified water 49,000 mL, ratio 1.05~1.06): Transparent
- Dissolved state of recoflavone ([1]; final volume 100 mL, recoflavone 3% (w/v), NaOH 0.086 M, purified water 90 mL, ratio 1.05): Transparent
- Dissolved state of recoflavone ([1]; final volume 100 mL, recoflavone 3% (w/v), NaOH 0.097 M, purified water 80 mL): Transparent
- Dissolved state of recoflavone ([1]; final volume 100 mL, recoflavone 3% (w/v), NaOH 0.111 M, purified water 70 mL): Transparent
- Dissolved state of recoflavone ([1]; final volume 100 mL, recoflavone 5% (w/v), NaOH 0.137 M, purified water 100 mL, ratio 1.05): Transparent
- Dissolved state of recoflavone ([1]; final volume 100 mL, recoflavone 5% (w/v), NaOH 0.152 M, purified water 90 mL): Transparent
- Dissolved state of recoflavone ([1]; final volume 100 mL, recoflavone 5% (w/v), NaOH 0.196 M, purified water 70 mL): Transparent
- Dissolved state of recoflavone ([1]; final volume 100 mL, recoflavone 5% (w/v), NaOH 0.392 M, purified water 70 mL): Transparent
- Dissolved state of recoflavone ([1]; final volume 100 mL, recoflavone 6% (w/v), NaOH 0.204 M, purified water 80 mL): Transparent
- Dissolved state of recoflavone ([1]; final volume 100 mL, recoflavone 6% (w/v), NaOH 0.233 M, purified water 70 mL): Transparent
- Dissolved state of recoflavone ([1]; final volume 100 mL, recoflavone 6% (w/v), NaOH 0.466 M, purified water 70 mL): Transparent
- Dissolved state of recoflavone ([1]; final volume 100 mL, recoflavone 7% (w/v), NaOH 0.195 M, purified water 100 mL, ratio 1.05): Transparent
- Dissolved state of recoflavone ([1]; final volume 100 mL, recoflavone 7% (w/v), NaOH 0.279 M, purified water 70 mL): Transparent
- Dissolved state of recoflavone ([1]; final volume 100 mL, recoflavone 7% (w/v), NaOH 0.558 M, purified water 70 mL): Transparent
- solubility at low pH ([3]; low pH): low
- solubility in water ([3]; water): practically insoluble
- cell permeability [5]: poor
Structure (SMILES): COc1ccc(-c2cc(=O)c3c(OC)cc(OCC(=O)O)cc3o2)cc1OC [recoflavone, 2-((2-(3,4-dimethoxyphenyl)-5-methoxy-4-oxo-4H-chromen-7-yl)oxy) acetic acid]
- thickness of the mucin layer ([2]; 100 μM solution): significantly increased
- MUC1, MUC4, MUC16 and MUC5AC by real-time PCR [2, 7]: tendency to increase significantly for four hours and then decreased rapidly
- mucin proteins by Western blot analysis [2, 7]: MUC5AC only had a tendency to increase and the others did not
- hygroscopicity ([4]; form of a hydrate): stable without hygroscopicity
- hygroscopicity ([4]; form of an anhydride): has hygroscopicity
- drug concentration in the cornea [6]: high immediately after the administration, but it was rapidly decreased over time
- drug distribution in each tissue of eye with time [6]: rarely distributed in the tissues located inside the eye and mainly distributed in the surrounding tissues outside of the eye

Source: US20250082603A1, “OPHTHALMIC COMPOSITION CONTAINING RECOFLAVONE FOR THE TREATMENT OF DRY EYE DISEASE AND METHOD FOR PREPARING THE SAME” (GL PHARMTECH CORP., priority 2021, published 2025)
